Reference: US20200163984A1, “USE OF ISOVALERYL SPIRAMYCIN I, II AND/OR III IN MANUFACTURING MEDICAMENT FOR TREATING AND/OR PREVENTING TUMOR, AND MEDICAMENT” (SHENYANG FUYANG PHARMACEUTICAL TECHNOLOGY CO., LTD., priority 2017, published 2020)

System: transplanted tumor of human glioblastoma cell A172
Conditions: 50 mg/kg
Procedure: Then cell concentration was adjusted to 1×10^7/ml with matrigel, then each nude mouse was inoculated subcutaneously with 0.2 ml of cells at its right armpit and recorded as the first day of inoculation. When the tumor grows to be greater than or equal to 100 mm^3, the mice were randomly divided into 11 groups with 6 mice in each group: a model group, a temozolomide group, […], […], […] Each group was continuously administered intragastrically for 30 days with a dose of 20 ml/kg. The mice were sacrificed the next day after drug withdrawal and the indicators were tested. The long diameter and short diameter of the tumor, and the body weight of each mouse were recorded every 3 days from drug administration to nude mouse sacrifice.
The body weight of the nude mice and the long diameter (a) and short diameter (b) of the transplanted tumor were measured every 3 days, and the tumor volume (v), relative tumor volume (RTV) and relative tumor proliferation rate (T/C) are calculated respectively according to the following formulas, wherein V=a×b^2/2; RTV=V/V0 (V0 is the tumor volume before administration, V is the tumor volume before sacrifice), and T/C (%)=treatment group RTV/model control group RTV×100%.
Each mouse was weighed and sacrificed. After the tumor was completely stripped off from the body of the mouse, the non-tumor tissues such as blood stains and fat were removed to weigh the tumor and calculate the tumor growth inhibition rate. The average tumor weight of each group of mice is used as an indicator of efficacy. Tumor growth inhibition rate (%)=(1−the average tumor weight of the treatment group/the average tumor weight of the model group)×100%.

Cn1nnc2c(C(N)=O)ncn2c1=O [temozolomide, reference compound]
Inhibition Rate (%) (A172 nude mice): 68.89%
Relative Tumor Proliferation Rate (T/C) (A172 nude mice): 61.35%
Relative Tumor Volume (RTV) (A172 nude mice): 4.12 ± 2.03
Tumor Weight (A172 nude mice): 0.43 ± 0.06 g
Tumor Volume (mm3) (d 1) (A172 nude mice, d1): 116.6 ± 10.91 mm3
Tumor Volume (mm3) (d30) (A172 nude mice, d30): 482.11 ± 89.74 mm3
Body Weight (g) (d1) (mouse, in vivo): 21.07 ± 0.57 g
Body Weight (g) (d30) (mouse, in vivo): 19.83 ± 1.24 g
